Assay results from ChEMBL document CHEMBL1201862, “PubChem BioAssay data set” (2004).
Activity calls are given as the source filed them.

What was measured:
[1] = biological target: T1, NAD-dependent protein deacylase sirtuin-5, mitochondrial (Homo sapiens, UniProt Q9NXA8); assay: SIRT5 desuccinylase inhibitors, dose response, biochemical, fluorescence imaging, cherry-pick, set 5 (AID 720591);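 note: desuccinylation of succinyl peptide AMC substrate read as fluorescence after trypsin release; potency of inhibitors that lower fluorescence and may act on trypsin instead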
[2] = biological target: T1, NAD-dependent protein deacylase sirtuin-5, mitochondrial; assay: SIRT5 deacylase inhibitors, dose response, biochemical, fluorescence imaging, cherry-pick, set 6 (AID 720597)
[3] = Luminescence-based cell-based high throughput dose response assay to identify activators of the DAF-12 from the parasite S. stercoralis (ssDAF-12).; type: functional
[4] = biological target: T2, Oxysterols receptor LXR-beta (Homo sapiens, UniProt P55055); assay: LXR agonists, Gal4 luciferase reporter, dose response, counter-screen for ssDAF-12 agonist project, cell-based, luminescence, HEK293, S. stercoralis campaign (AID 720737); type: functional; conditions: read-out: IC50 (the source's name)
T2 sequence (P55055 whole entry): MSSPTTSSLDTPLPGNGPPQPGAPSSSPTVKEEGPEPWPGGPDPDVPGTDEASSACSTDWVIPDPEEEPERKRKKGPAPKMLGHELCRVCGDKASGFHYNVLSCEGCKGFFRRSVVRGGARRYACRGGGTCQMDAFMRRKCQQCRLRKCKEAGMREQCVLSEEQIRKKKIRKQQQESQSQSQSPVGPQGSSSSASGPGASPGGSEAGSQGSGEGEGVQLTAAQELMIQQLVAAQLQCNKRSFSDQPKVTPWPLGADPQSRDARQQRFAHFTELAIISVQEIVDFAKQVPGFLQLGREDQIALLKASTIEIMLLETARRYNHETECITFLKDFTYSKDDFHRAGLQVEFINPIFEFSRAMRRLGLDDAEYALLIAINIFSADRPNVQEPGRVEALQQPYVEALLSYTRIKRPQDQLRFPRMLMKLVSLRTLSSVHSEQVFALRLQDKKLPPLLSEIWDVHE

[5] = system: Streptococcus sp. 'group A'; assay: growth inhibition of control SK(-) GAS strain, dose response, counter-screen for streptokinase expression inhibitor project, luminescence, kanamycin, BacTiterGlo, confirmation (AID 1900); type: functional, organism-based
Streptokinase A = biological target: T3, Streptokinase A (Streptococcus pyogenes serotype M1, UniProt P10520); assay: S. pyogenes streptokinase expression inhibitors, potency, dose response, plasminogen activation absorbance, OD405 (AID 1914); type: functional, Streptococcus pyogenes M1 GAS;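 note: secreted streptokinase activity via plasminogen activation per viability signal from cell pellet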
T3 sequence (P10520 whole entry): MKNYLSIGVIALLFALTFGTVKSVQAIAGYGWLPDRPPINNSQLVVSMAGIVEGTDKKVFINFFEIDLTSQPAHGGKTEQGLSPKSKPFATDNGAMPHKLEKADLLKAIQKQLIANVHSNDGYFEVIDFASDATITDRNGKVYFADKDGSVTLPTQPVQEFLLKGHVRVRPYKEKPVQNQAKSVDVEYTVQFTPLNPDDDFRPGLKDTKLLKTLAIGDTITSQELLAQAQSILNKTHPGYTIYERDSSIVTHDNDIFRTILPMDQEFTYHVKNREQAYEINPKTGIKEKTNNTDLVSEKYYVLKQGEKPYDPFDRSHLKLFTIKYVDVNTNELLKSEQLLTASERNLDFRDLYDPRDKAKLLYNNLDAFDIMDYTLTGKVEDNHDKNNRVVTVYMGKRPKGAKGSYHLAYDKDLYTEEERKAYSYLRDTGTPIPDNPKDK

Streptococcus = assay: Group A Streptococcus viability loss, dose response, counter-screen for streptokinase expression inhibitor project, luminescence, BacTiterGlo (AID 1915); type: functional, organism-based;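 note: potency for reduction of bacterial viability or growth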
[6] = biological target: T4, Methionyl-tRNA synthetase, putative (Trypanosoma brucei brucei, UniProt Q38C91); type: functional, Trypanosoma brucei brucei strain 927/4 GUTat10.1
T4 sequence (Q38C91 whole entry): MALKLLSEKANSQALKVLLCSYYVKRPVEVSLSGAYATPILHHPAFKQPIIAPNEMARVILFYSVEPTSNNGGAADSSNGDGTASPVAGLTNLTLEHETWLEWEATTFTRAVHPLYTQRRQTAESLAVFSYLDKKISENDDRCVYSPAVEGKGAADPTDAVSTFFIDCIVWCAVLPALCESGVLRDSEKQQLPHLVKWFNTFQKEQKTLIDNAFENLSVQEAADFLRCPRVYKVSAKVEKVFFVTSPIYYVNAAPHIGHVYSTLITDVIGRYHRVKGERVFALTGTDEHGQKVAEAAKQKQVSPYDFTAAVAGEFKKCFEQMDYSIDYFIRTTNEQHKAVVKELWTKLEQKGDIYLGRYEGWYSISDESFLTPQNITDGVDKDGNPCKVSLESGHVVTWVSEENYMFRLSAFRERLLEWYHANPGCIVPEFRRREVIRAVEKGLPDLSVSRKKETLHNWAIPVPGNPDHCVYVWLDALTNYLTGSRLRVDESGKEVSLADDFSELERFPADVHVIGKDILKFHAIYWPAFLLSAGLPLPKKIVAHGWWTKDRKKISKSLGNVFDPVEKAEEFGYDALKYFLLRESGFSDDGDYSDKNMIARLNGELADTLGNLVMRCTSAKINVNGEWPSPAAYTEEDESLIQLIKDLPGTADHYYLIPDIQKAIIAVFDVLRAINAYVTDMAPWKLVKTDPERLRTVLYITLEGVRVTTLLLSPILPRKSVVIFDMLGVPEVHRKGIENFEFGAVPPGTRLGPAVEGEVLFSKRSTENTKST

[7] = Counterscreen for inhibitors of Trypanosoma brucei methionyl tRNA synthetase (MetRS): Luminescence-based cell-based high throughput dose response assay to identify compounds that are cytotoxic to Jurkat human T lymphocyte cells.; type: functional
[8] = biological target: T4, Methionyl-tRNA synthetase, putative; type: functional, Trypanosoma brucei brucei strain 927/4 GUTat10.1; remark: listed apart in the source
[9] = Late stage counterscreen for inhibitors of Trypanosoma brucei methionyl tRNA synthetase (MetRS): Luminescence-based cell-based high throughput dose response assay to identify compounds that are cytotoxic to Jurkat human T lymphocyte cells.; type: functional
[10] = biological target: T5, Mannose-6-phosphate isomerase (Homo sapiens, UniProt P34949); assay: inhibitors of human PMI, primary screen, biochemical, fluorescence intensity, coupled assay (AID 1209)
T5 sequence (P34949 whole entry): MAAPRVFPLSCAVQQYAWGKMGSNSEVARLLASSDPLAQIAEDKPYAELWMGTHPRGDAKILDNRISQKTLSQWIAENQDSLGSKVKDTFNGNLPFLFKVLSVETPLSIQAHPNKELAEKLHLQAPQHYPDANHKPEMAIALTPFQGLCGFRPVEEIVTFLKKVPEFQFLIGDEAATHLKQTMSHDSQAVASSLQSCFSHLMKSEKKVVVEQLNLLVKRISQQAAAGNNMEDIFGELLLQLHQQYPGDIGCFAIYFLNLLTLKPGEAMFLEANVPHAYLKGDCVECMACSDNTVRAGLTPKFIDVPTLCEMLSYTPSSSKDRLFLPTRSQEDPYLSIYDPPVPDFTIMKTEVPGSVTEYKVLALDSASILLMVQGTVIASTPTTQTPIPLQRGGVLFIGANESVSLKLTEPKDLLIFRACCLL

[11] = biological target: T5, Mannose-6-phosphate isomerase; assay: human PMI inhibitors, high substrate, primary screen, biochemical, fluorescence intensity, high mannose 6-phosphate (AID 1220)
Protein Tat = biological target: T6, Protein Tat (Human immunodeficiency virus type 1 group M subtype B (isolate HXB2)(HIV-1), UniProt P04608); type: functional;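 note: tat binding to TAR RNA read out by fluorescence polarization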
T6 sequence (P04608 whole entry): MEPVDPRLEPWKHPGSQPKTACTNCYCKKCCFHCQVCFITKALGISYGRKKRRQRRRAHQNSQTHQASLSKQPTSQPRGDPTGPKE

[12] = THP-1 cell cytotoxicity, dose response, cytotoxicity control for Vif-APOBEC3G degradation inhibitor project, THP-1 cells (AID 1117359); type: functional; conditions: Human immunodeficiency virus 1, THP-1
[13] = inhibitors of Vif binding to APOBEC3G peptide, primary screen, biochemical, TR-FRET, GST-Vif 1-94, biotin-A3G peptide, dose response retest (AID 1117319); type: functional;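 note: TR-FRET signal of purified GST-Vif binding a biotinylated A3G peptide; inhibitors lower the FRET signal by blocking Vif and A3G binding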
[14] = biological target: T7, Tyrosine-protein phosphatase non-receptor type 7 (Homo sapiens, UniProt P35236); assay: inhibitors of human HePTP phosphatase, […], biochemical, absorbance, leukemia target (AID 521); type: functional
T7 sequence (P35236 whole entry): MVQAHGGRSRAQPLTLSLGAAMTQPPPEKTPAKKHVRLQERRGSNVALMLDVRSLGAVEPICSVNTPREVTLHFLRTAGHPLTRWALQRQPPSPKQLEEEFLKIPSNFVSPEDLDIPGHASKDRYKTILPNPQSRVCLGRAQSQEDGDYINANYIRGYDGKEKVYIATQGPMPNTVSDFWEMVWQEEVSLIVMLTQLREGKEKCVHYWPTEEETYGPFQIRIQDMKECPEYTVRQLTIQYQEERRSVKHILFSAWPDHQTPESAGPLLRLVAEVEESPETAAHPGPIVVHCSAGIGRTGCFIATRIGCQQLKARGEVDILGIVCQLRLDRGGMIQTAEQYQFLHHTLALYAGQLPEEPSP

Bcl-2-like protein 10 = biological target: T8, Bcl-2-like protein 10 (Homo sapiens, UniProt Q9HD36); assay: displacers of TR3 peptide from Bcl-B, primary screen, selectivity assay for Bfl-1 inhibitor project, biochemical, fluorescence polarization, FITC-TR3 peptide (AID 748);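 note: fluorescence polarization from a fluorescein-labelled TR3 peptide binding purified Bcl-B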
T8 sequence (Q9HD36 whole entry): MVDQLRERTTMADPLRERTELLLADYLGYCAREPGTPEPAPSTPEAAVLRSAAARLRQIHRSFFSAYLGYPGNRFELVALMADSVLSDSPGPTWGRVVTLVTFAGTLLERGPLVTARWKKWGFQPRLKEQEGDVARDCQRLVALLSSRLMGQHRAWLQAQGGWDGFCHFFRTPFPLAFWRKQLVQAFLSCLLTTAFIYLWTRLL

T1 sequence (Q9NXA8 whole entry): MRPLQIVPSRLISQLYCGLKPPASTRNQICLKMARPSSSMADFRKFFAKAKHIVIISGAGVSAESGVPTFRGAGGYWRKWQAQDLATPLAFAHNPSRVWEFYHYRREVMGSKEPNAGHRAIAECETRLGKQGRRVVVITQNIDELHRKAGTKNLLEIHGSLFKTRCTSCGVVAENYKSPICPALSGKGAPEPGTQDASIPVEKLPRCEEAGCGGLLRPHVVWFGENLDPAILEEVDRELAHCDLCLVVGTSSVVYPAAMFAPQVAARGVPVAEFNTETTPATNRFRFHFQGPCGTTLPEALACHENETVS

O=C(O)C1=C2C(=O)Nc3cccc(c32)C2(C1)C(=O)Nc1ccccc12 (configuration not stated)
AC50 [1]: 25.1 µM (active)

Cc1ccc(S(=O)(=O)Nc2ccc3c(c2)C(=O)N([C@@H](C)CO)C[C@@H](C)[C@H](CN(C)S(=O)(=O)c2ccc(F)cc2)OCCCC[C@@H](C)O3)cc1
AC50 [2]: > 30 µM (inactive)

Cc1cc(NC(=S)NC(=O)/C=C/c2ccc(S(=O)(=O)N3CCOCC3)cc2)ccc1Br
IC50 [3]: > 67.5 µM (inactive)
EC50 [4]: > 67.5 µM (inactive)

O=C1CC(N(CCc2ccccc2)C(=S)Nc2ccccc2)C(=O)N1c1ccc(Br)cc1 (configuration not stated)
EC50 [5]: 2.87 µM (active)
EC50 (Streptokinase A): 2.67 µM (active)
EC50 (Streptococcus): 18.3 µM (active)
IC50 [6]: 0.743 µM (active)
IC50 [7]: 25.3 µM (inactive)
IC50 [8]: 460 nM (active)
IC50 [9]: 15.4 µM (inactive)

COc1cc(CNc2ccc3[nH]c(O)nc3c2)cc(Cl)c1OCC(=O)NC(C)(C)C
IC50 [10]: > 50 µM (not active)
IC50 [11]: > 50 µM (not active)
IC50 (Protein Tat): 50.5 µM (inconclusive)
CC50 [12]: > 40 µM (active)
IC50 [13]: > 51.4 µM (active)

C/C(N)=C(/C#N)C(=O)CSc1nnc(Nc2c(C)cccc2C)s1
IC50 [14]: 30.2 µM (active)
IC50 (Bcl-2-like protein 10): 17.2 µM (active)

COc1ccccc1-n1c(SCC(=O)Nc2ccc(Cl)cc2)nc(=O)c(Cc2ccccc2)c1O
IC50 [6]: 5.59 µM (active)
IC50 [7]: 74.5 µM (inactive)
IC50 [8]: 5070 nM (active)
IC50 [9]: 77.1 µM (inactive)
